Reference: the supplement of paper PMC11208160

Assay: recombinant UMI read abundance after kanamycin selection (control-corrected) (log10(CPM+1)); higher = more efficient recombination; extreme values may be limits of the assay; sequences stand for … in AGTGCAGAGAAAATCGGCCAGTTTTCTCTGCCTGCAGTCCGCATGCCGTGGGACCCCTTGGGTTCTAACCTGTTGCCTAGATTTATGCAGCGGACTGCCTTTCTCCCAAAGTGATAAACCGG…AGGTTGGTTTCACT; site = the 11-nt donor
How it was run: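 In Escherichia coli, a pool of donor and donor-binding-loop pairs, each with a 12-nt UMI, was tested for the IS621 bridge recombinase. Plating was on IPTG (0.07 mM) plus kanamycin, or without selection, in two replicates. Recombinant UMIs were amplified by PCR across the donor–target junction and sequenced, and counts were reported as log10(CPM+1) after averaging and control-derived scaling.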
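Further: IS621 bridge recombinase in Escherichia coli cells against a fixed T5 target plasmid.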

Going from “CAGCCGACATGGACCGGTTTTCCCGGTAATCCGTATTTGGG (site CAGTCGACTCC)” to “CAGCGAACATGGACCGGTTTTCCCGGTAATCCGTATTTGGG (site CAGCGAACTCC)”, the “recombinant UMI read abundance (log10)” value rises from 0.00469 to 0.888.

“CAGCTACCATGGACCGGTTTTCCCGGTAATCCGTATTTGCT (site CAGCTACCTAG)” and “CAGCTACCATGGACCGGTTTTCCCGGTAATCCGTATTTGCT (site CCGCTACCTAG)” are the same in “recombinant UMI read abundance (log10)” value: 0 for the first, 0 for the second.

“CAGCTACCATGGACCGGTTTTCCCGGTAATCCGTATTTGCT (site CGGCTACCTAG)” and “CAGCTACCATGGACCGGTTTTCCCGGTAATCCGTATTTGCT (site CTGCTACCTAG)” are the same in “recombinant UMI read abundance (log10)” value: 0 for the first, 0 for the second.

“CAGGAACCATGGACCGGTTTTCCCGGTAATCCGTATTTGAT (site CAGGAACCTAT)” and “CAGGAACCATGGACCGGTTTTCCCGGTAATCCGTATTTGAT (site CCGGAACCTAT)” are the same in “recombinant UMI read abundance (log10)” value: 0 for the first, 0 for the second.

“CAGGAACCATGGACCGGTTTTCCCGGTAATCCGTATTTGAT (site CGGGAACCTAT)” and “CAGGAACCATGGACCGGTTTTCCCGGTAATCCGTATTTGAT (site CTGGAACCTAT)” are the same in “recombinant UMI read abundance (log10)” value: 0 for the first, 0 for the second.

“CAGGACTCATGGACCGGTTTTCCCGGTAATCCGTATTTGTC (site CAGGACTCTGA)” and “CAGGGGTCATGGACCGGTTTTCCCGGTAATCCGTATTTGTA (site CAGGGGTCTTA)” are within 0.2 log units of each other in “recombinant UMI read abundance (log10)” value: 3.38 for the first, 3.37 for the second.

First: CAGTAACCATGGACCGGTTTTCCCGGTAATCCGTATTTGAA (site CAGTAACCTTT)
Second: CAGTAACCATGGACCGGTTTTCCCGGTAATCCGTATTTGGA (site CAGTAACCTTC)
The “recombinant UMI read abundance (log10)” value of the first is higher: 0.255 for the first, 0.00404 for the second.

Going from “CAGTACACATGGACCGGTTTTCCCGGTAATCCGTATTTGAC (site CAGTACACTGT)” to “CAGTAGACATGGACCGGTTTTCCCGGTAATCCGTATTTGTC (site CAGTAGACTGA)”, the “recombinant UMI read abundance (log10)” value falls from 3.63 to 2.13.

First: CAGTAGGCATGGACCGGTTTTCCCGGTAATCCGTATTTGCA (site CAGTAGGCTTG)
Second: CAGTCACCATGGACCGGTTTTCCCGGTAATCCGTATTTGTA (site CAGTCACCTTA)
The “recombinant UMI read abundance (log10)” value of the first is higher: 2.82 for the first, 0.0069 for the second.

Going from “CAGTCCTCATGGACCGGTTTTCCCGGTAATCCGTATTTGAA (site CAGTCCTCTTT)” to “CAGTCGACATGGACCGGTTTTCCCGGTAATCCGTATTTGAG (site CAGTCGACTCA)”, the “recombinant UMI read abundance (log10)” value falls from 1.96 to 0.00421.

“CAGTCGACATGGACCGGTTTTCCCGGTAATCCGTATTTGAG (site CAGTCGACTCC)” and “CAGTCGACATGGACCGGTTTTCCCGGTAATCCGTATTTGAG (site CAGTCGACTCG)” are within 0.2 log units of each other in “recombinant UMI read abundance (log10)” value: 0.0115 for the first, 0.00367 for the second.

Compared with “CAGTCGACATGGACCGGTTTTCCCGGTAATCCGTATTTGAG (site CAGTCGACTCT)”, “CAGTCGGCATGGACCGGTTTTCCCGGTAATCCGTATTTGGG (site CAGTCGACTCC)” is lower in “recombinant UMI read abundance (log10)” value: 0.855 for the first, 0.027 for the second.

“CAGTCGGCATGGACCGGTTTTCCCGGTAATCCGTATTTGGG (site CAGTCGCCTCC)” and “CAGTCGGCATGGACCGGTTTTCCCGGTAATCCGTATTTGGG (site CAGTCGGCTCC)” are within 0.2 log units of each other in “recombinant UMI read abundance (log10)” value: 0.0091 for the first, 0.157 for the second.

Compared with “CAGTCGGCATGGACCGGTTTTCCCGGTAATCCGTATTTGGG (site CAGTCGTCTCC)”, “CAGTCGGCATGGACCGGTTTTCCCGGTAATCCGTATTTGGT (site CAGTCGGCTAC)” is higher in “recombinant UMI read abundance (log10)” value: 0.0153 for the first, 0.814 for the second.

Going from “CAGTGTACATGGACCGGTTTTCCCGGTAATCCGTATTTGCA (site CAGTGTACTTG)” to “CAGTTACCATGGACCGGTTTTCCCGGTAATCCGTATTTGCC (site CAGTTACCTGG)”, the “recombinant UMI read abundance (log10)” value falls from 2.48 to 0.

First: CAGTTCTCATGGACCGGTTTTCCCGGTAATCCGTATTTGGC (site CAGTTCTCTGC)
Second: CAGTTGCCATGGACCGGTTTTCCCGGTAATCCGTATTTGGT (site CAGTTGCCTAC)
The “recombinant UMI read abundance (log10)” value of the first is higher: 3.27 for the first, 0.0159 for the second.

Compared with “CAGTTGTCATGGACCGGTTTTCCCGGTAATCCGTATTTGCG (site CAGTTGTCTCG)”, “CATAACCCATGGACCGGTTTTCCCGGTAATCCGTATTTGAT (site CATAACCCTAT)” is lower in “recombinant UMI read abundance (log10)” value: 3.14 for the first, 1.19 for the second.

Going from “CATAATCCATGGACCGGTTTTCCCGGTAATCCGTATTTGTT (site CATAATCCTAA)” to “CATAATCCATGGACCGGTTTTCCCGGTAATCCGTATTTGTT (site CGGAATCCTAA)”, the “recombinant UMI read abundance (log10)” value falls from 0.529 to 0.00373.

Compared with “CATAGCACATGGACCGGTTTTCCCGGTAATCCGTATTTGTA (site CATAGCACTTA)”, “CATATCCCATGGACCGGTTTTCCCGGTAATCCGTATTTGAC (site CATATCCCTGT)” is lower in “recombinant UMI read abundance (log10)” value: 1.96 for the first, 0.73 for the second.

Compared with “CATCACACATGGACCGGTTTTCCCGGTAATCCGTATTTGGG (site CATCACACTCC)”, “CATCGCCCATGGACCGGTTTTCCCGGTAATCCGTATTTGGT (site CATCGCCCTAC)” is higher in “recombinant UMI read abundance (log10)” value: 0.0249 for the first, 0.296 for the second.

Going from “CATCTGACATGGACCGGTTTTCCCGGTAATCCGTATTTGCG (site CATCTGACTCG)” to “CATCTGTCATGGACCGGTTTTCCCGGTAATCCGTATTTGAC (site CATCTGTCTGT)”, the “recombinant UMI read abundance (log10)” value falls from 1.45 to 0.

Compared with “CATCTTGCATGGACCGGTTTTCCCGGTAATCCGTATTTGGT (site CATCTTGCTAC)”, “CATGACTCATGGACCGGTTTTCCCGGTAATCCGTATTTGTT (site CATGACTCTAA)” is higher in “recombinant UMI read abundance (log10)” value: 0.825 for the first, 2.08 for the second.

Going from “CATGCCTCATGGACCGGTTTTCCCGGTAATCCGTATTTGTG (site CATGCCTCTCA)” to “CATGGCTCATGGACCGGTTTTCCCGGTAATCCGTATTTGCG (site CATGGCTCTCG)”, the “recombinant UMI read abundance (log10)” value rises from 1.43 to 2.15.

Compared with “CATGTAACATGGACCGGTTTTCCCGGTAATCCGTATTTGCT (site AATGTAACTAG)”, “CATGTAACATGGACCGGTTTTCCCGGTAATCCGTATTTGCT (site CATGTAACTAG)” is higher in “recombinant UMI read abundance (log10)” value: 0.624 for the first, 2.28 for the second.

First: CATGTAACATGGACCGGTTTTCCCGGTAATCCGTATTTGCT (site GATGTAACTAG)
Second: CATGTAACATGGACCGGTTTTCCCGGTAATCCGTATTTGCT (site TATGTAACTAG)
The “recombinant UMI read abundance (log10)” value of the first is lower: 0.28 for the first, 0.869 for the second.

First: CATGTGTCATGGACCGGTTTTCCCGGTAATCCGTATTTGAC (site AATGTGTCTGT)
Second: CATGTGTCATGGACCGGTTTTCCCGGTAATCCGTATTTGAC (site CATGTGTCTGT)
The “recombinant UMI read abundance (log10)” value of the first is lower: 0 for the first, 0.602 for the second.

“CATGTGTCATGGACCGGTTTTCCCGGTAATCCGTATTTGAC (site GATGTGTCTGT)” and “CATGTGTCATGGACCGGTTTTCCCGGTAATCCGTATTTGAC (site TATGTGTCTGT)” are within 0.2 log units of each other in “recombinant UMI read abundance (log10)” value: 0 for the first, 0.00981 for the second.

First: CATGTTCCATGGACCGGTTTTCCCGGTAATCCGTATTTGTG (site CATGTTCCTCA)
Second: CATTAGTCATGGACCGGTTTTCCCGGTAATCCGTATTTGTT (site CATTAGTCTAA)
The “recombinant UMI read abundance (log10)” value of the first is lower: 0.0131 for the first, 2.03 for the second.

Compared with “CATTCAACATGGACCGGTTTTCCCGGTAATCCGTATTTGCC (site CATTCAACTGG)”, “CATTCCTCATGGACCGGTTTTCCCGGTAATCCGTATTTGCC (site CAATCCTCTGG)” is higher in “recombinant UMI read abundance (log10)” value: 0.426 for the first, 1.59 for the second.

Compared with “CATTCCTCATGGACCGGTTTTCCCGGTAATCCGTATTTGCC (site CACTCCTCTGG)”, “CATTCCTCATGGACCGGTTTTCCCGGTAATCCGTATTTGCC (site CAGTCCTCTGG)” is lower in “recombinant UMI read abundance (log10)” value: 1.09 for the first, 0 for the second.

First: CATTCCTCATGGACCGGTTTTCCCGGTAATCCGTATTTGCC (site CATTCCTCTGG)
Second: CATTCGACATGGACCGGTTTTCCCGGTAATCCGTATTTGCG (site CATTCGACTCG)
The “recombinant UMI read abundance (log10)” value of the first is higher: 1.47 for the first, 0.32 for the second.

Going from “CATTGACCATGGACCGGTTTTCCCGGTAATCCGTATTTGAG (site CATTGACCTCT)” to “CATTGCACATGGACCGGTTTTCCCGGTAATCCGTATTTGTA (site CATTGCACTTA)”, the “recombinant UMI read abundance (log10)” value rises from 0.0215 to 0.726.

Going from “CATTGGACATGGACCGGTTTTCCCGGTAATCCGTATTTGCC (site CATTGGACTGG)” to “CATTTATCATGGACCGGTTTTCCCGGTAATCCGTATTTGCA (site GCCCGTCCTAC)”, the “recombinant UMI read abundance (log10)” value falls from 1.73 to 0.031.

Going from “CATTTATCATGGACCGGTTTTCCCGGTAATCCGTATTTGGC (site CATTTATCTGC)” to “CATTTCCCATGGACCGGTTTTCCCGGTAATCCGTATTTGCT (site CAATTCCCTAG)”, the “recombinant UMI read abundance (log10)” value falls from 1.72 to 0.464.

Going from “CATTTCCCATGGACCGGTTTTCCCGGTAATCCGTATTTGCT (site CACTTCCCTAG)” to “CATTTCCCATGGACCGGTTTTCCCGGTAATCCGTATTTGCT (site CAGTTCCCTAG)”, the “recombinant UMI read abundance (log10)” value falls from 0.691 to 0.0164.

First: CATTTCCCATGGACCGGTTTTCCCGGTAATCCGTATTTGCT (site CATTTCCCTAG)
Second: CATTTGGCATGGACCGGTTTTCCCGGTAATCCGTATTTGTG (site AATTTGGCTCA)
The “recombinant UMI read abundance (log10)” value of the first is higher: 0.788 for the first, 0.0432 for the second.

Going from “CATTTGGCATGGACCGGTTTTCCCGGTAATCCGTATTTGTG (site CATTTGGCTCA)” to “CATTTGGCATGGACCGGTTTTCCCGGTAATCCGTATTTGTG (site GATTTGGCTCA)”, the “recombinant UMI read abundance (log10)” value falls from 0.552 to 0.00627.

With “CATTTGGCATGGACCGGTTTTCCCGGTAATCCGTATTTGTG (site TATTTGGCTCA)” the “recombinant UMI read abundance (log10)” value was 0.106.
